Test results taken from publication PMC4512978, “Synthesis and evaluation in rats of homologous series of [^18F]-labeled dopamine D2/3 receptor agonists based on the 2-aminomethylchroman scaffold as potential PET tracers” (EJNMMI Research, 2015).
Several values for one entry are separate records, joined by “and”; a condition that tells them apart may be missing. Equal entries are not always repeated.

Experiments:
[1] = LogD measurement (n-octanol/phosphate buffer); type: physicochemical; conditions: n-octanol / 1 M phosphate buffer pH 7.4
Description: LogD of the tracers was measured using the radioactivity remaining on the HLB SPE cartridges after their elution with ethanol during the tracer formulation procedure (see above). The cartridge was dried with nitrogen for 5 min and eluted with at least 1.5 mL n-octanol. A 500 μL portion of octanol eluate was mixed with 500 μL of 1 M phosphate buffer (pH 7.4) and vigorously vortexed for 5 min. The mixture was then centrifuged at 17,000g for 10 min and 3 × 100 μL aliquots of organic and aqueous phase were loaded into a gamma-counter for radioactivity measurement. To correct for possible presence of radioactive impurities in the tracer, aliquots of organic and aqueous phases were later analyzed by radio-TLC, and the counts obtained from the gamma-counter were corrected according to the percentage of impurities found in aqueous and organic phases. LogD was calculated with the following formula: LogD=lgCPMorg×Xorgtracer/CPMaq×Xaqtracer,
where CPMorg is the mean radioactivity of the organic aliquots, Xorgtracer is the mean percentage of radioactivity accounting for intact tracer in organic aliquots (as determined from radio-TLC), and CPMaq and Xaqtracer are the corresponding values for the aqueous phase.
For each tracer batch used for logD determination, the experiment was performed in duplicate. LogD values are means calculated from at least two independent experiments.

[2] = Tracer metabolism in plasma and brain extract (radio-TLC); type: in vivo, rats; conditions: for metabolism in plasma: living rats
Description: Throughout the scan, arterial blood samples (15–19 samples; 0.10–0.15 mL each) were withdrawn from each rat through the arterial cannula. […] From each sample, 25 μL aliquots of whole blood were withdrawn. The rest was centrifuged at 3500 g for 5 min; 25 μL supernatant (plasma) aliquots were withdrawn and deproteinated with 75 μL of ice-cold acetonitrile. From the resulting 100 μL, 2–8 μL portions (i.e., 2–8 % of volume) were taken for thin layer chromatography analysis (radio-TLC) to assess radiometabolite content.
The radioactivity of the plasma and whole blood samples was measured using a well-type gamma-counter (LKB-1282-Compugamma, LKB Wallac).
Radio-TLC was performed on silica plates. Samples of the formulated tracers (diluted) were run along with deproteinated plasma samples to confirm the identity of the parent compound in plasma. Eluent systems used and TLC Rf values recorded are presented in Additional file 1: Table S1.
Another half of the brain was homogenized in 3 mL of ice-cold acetonitrile using Heidolph IDAX600 homogenizer at maximum speed. Homogenate was centrifuged at 3500g for 5 min, and the supernatant (containing >95 % total radioactivity) was analyzed by radio-TLC in the same way as described above for the plasma.

[3] = system: D2/3R; test: MicroPET study in rats; type: in vivo, Sprague-Dawley rats; conditions: for blood-brain barrier penetration: PET in rats; for Brain uptake, peak: 3 min after radiotracer injection, control rats; for Striatum-to-cerebellum uptake ratio (PET): saline pre-treated rats, peak (45 min post-injection for [^18F]FEt-AMC13 and [^11C]raclopride)
Description: Animal experiments were performed by licensed investigators in compliance with the Law on Animal Experiments of The Netherlands. The protocol was approved by the Committee on Animal Ethics of the University of Groningen. Young male (10–12 weeks of age, 300–350 g body weight) Sprague-Dawley rats (Harlan, the Netherlands) were used for all experiments. The rats were maintained at a 12-h light/12-h dark regime and were fed standard laboratory chow ad libitum.
Distribution of the radiotracers was studied in rats pre-treated, at random, with physiological saline (controls) or raclopride tartrate (1 mg/kg calculated per raclopride base, equivalent to 2.9 μmol/kg). Saline and raclopride were administered intravenously (1 mL/kg injected volume).
An additional group of saline pre-treated rats, injected with [^11C]raclopride, served as positive controls for D2/3R-specific brain uptake.
Two rats were scanned simultaneously. Before all manipulations, animals were anesthetized with a mixture of isoflurane/air (inhalation anesthesia, 5 % ratio during induction, 2 % at maintenance). Cannulae were placed into the rats’ left femoral arteries and veins; the operation took 45–50 min. The rats were positioned supine inside the camera (Focus 220 microPET, Siemens-Concorde), one above the other with their heads in the camera’s field of view. A 515-s transmission scan with a Co-57 point source was performed. Tracer was injected through the venous cannula as a slow bolus (1 mL volume, 60 s long) using an infusion pump. The second (upper) animal was injected 16 min after the first (lower).
PET acquisition was started during the injection of radioactivity in the first rat. A 106-min long (76 min long in the case of [^11C]raclopride) list-mode acquisition protocol was used for the scan.
List-mode data from the 106-min-long and 76-min-long scans were reframed into, respectively, 90-min-long and 60-min-long dynamic sequences of 6 × 10, 4 × 30, 2 × 60, 1 × 120, 1 × 180, 4 × 300, 3 × 600, and (for 90-min-long scans) 2 × 900 s frames. The data were reconstructed per time frame using an iterative reconstruction algorithm (attenuation-weighted 2-dimensional ordered-subset expectation maximization, provided by Siemens; 4 iterations, 16 subsets; zoom factor 2). Datasets were fully corrected for random coincidences, scatter, and attenuation. Data from the transmission scan were used for attenuation correction. The final datasets consisted of 95 slices, with a slice thickness of 0.8 mm and an in-plane image matrix size of 128 × 128 and pixel size of 0.47 × 0.47 mm.
Reconstructed images were analyzed with Inveon 2.0 software (Siemens Medical Solutions, USA, Inc). Regions of interest (ROIs) were drawn manually on a T2-weighted MRI template of rat brain around the striatum, brainstem, cortex, hippocampus, hypothalamus, thalamus, olfactory bulbs, and cerebellum around the whole brain and around the pituitary gland. The MRI template was co-registered with the PET scan by image fusion. The time-activity curves (TAC) per ROI were determined in Bq/cm^3 units and converted into standardized uptake values (SUVs).
Degree of D2/3R-specific binding of the tracers was characterized by BPND (as given above) or the specific binding ratio (SBR) given as target region activity/cerebellar activity - 1. Both were calculated under control conditions and in response to the raclopride challenge.

**Q.** For `Oc1ccc2c(c1)O[C@@H](CNCc1ccc(OCCCC[18F])cc1)CC2` [[^18F]FBu-AMC13, (R)-2-[(4-(4-[^18F]fluorobutoxy)benzylamino)methyl]chroman-7-ol], which logD [1] is on record?
**A.** 2.5 ± 0.06

**Q.** What about the metabolism in plasma [2] of the same molecule?
**A.** quickly metabolized in the plasma

**Q.** What about the blood-brain barrier penetration [3] of the same molecule?
**A.** good blood-brain barrier (BBB) penetration

**Q.** What about the “Brain uptake, peak” value ([3]; PET) of the same molecule?
**A.** 0.9 % ID

**Q.** And the “Striatum-to-cerebellum uptake ratio (PET)” value [3]?
**A.** 1.41 ± 0.08

**Q.** Which results are given for `Oc1ccc2c(c1)O[C@@H](CNCc1ccc(OCC[18F])cc1)CC2` [[^18F]FEt-AMC13]?
**A.** logD [1]: 1.67 ± 0.07; intact tracer in radioactivity of brain tissue extract ([2]; 35 min post-injection): 92%; metabolism in plasma [2]: quickly metabolized in the plasma; entry of radiometabolites into the brain ([2]; rat, in vivo): did not enter the brain; decrease in D2/3R-specific binding in the striatum in vivo ([3]; 1 mg/kg (2.9 μmol/kg) raclopride, range over estimates): 17–39%; decrease of peak PET-based striatal SBR ([3]; 1 mg/kg raclopride, p = 0.25): 17%; blood-brain barrier penetration [3]: good blood-brain barrier (BBB) penetration; Brain uptake, peak ([3]; PET): 0.7 % ID; D2/3R occupancy by the tracer itself (crude estimation) ([3]; approach of Skinbjerg et al., all experiments): no more than 3%; peak PET-based striatal SBR ([3]; pre-treatment with 1 mg/kg (2.9 μmol/kg) raclopride): 0.90 ± 0.11; peak PET-based striatal SBR ([3]; saline pre-treated): 1.08 ± 0.25; Striatum-to-cerebellum uptake ratio (PET) [3]: 2.08 and 2.1 and 2.08 ± 0.25

**Q.** For `Oc1ccc2c(c1)O[C@@H](CNCCN1CCN(c3ccc(OCC[18F])cc3)CC1)CC2` [[^18F]FEt-AMC15, (R) 1-(4-(2-[^18F]fluoroethoxy)phenyl)-4-(4-(7-hydroxychroman-2-yl)-3-azabutyl)-piperazine], which logD [1] is on record?
**A.** 1.48 ± 0.002

**Q.** What about the metabolism in plasma [2] of the same molecule?
**A.** more stable

**Q.** And the “effect of raclopride pre-treatment on radioactivity distribution in the brain” value ([3]; 1 mg/kg raclopride)?
**A.** no detectable alterations of radioactivity distribution in the brain

**Q.** And the blood-brain barrier penetration [3]?
**A.** essentially did not penetrate the BBB

**Q.** And the “Brain uptake, peak” value ([3]; PET)?
**A.** 0.2 % ID

**Q.** What about the Brain uptake ([3]; PET, 60 min post-injection) of the same molecule?
**A.** 0.04 % ID
